Experimental data: patent US20240181007A1, “COMPOSITIONS AND METHODS FOR TREATING PULMONARY HYPERTENSION” (Acceleron Pharma Inc., priority 2021, published 2024)

Tested on: ZSF1-SU rats
Assay: HFpEF induced PH rat model, ZSF1 rats challenged with semaxanib (Example 10)
Assay type: in vivo
Conditions: relative to ZSF1-SU/PBS
Protocol: The effects of an ActRIIA-mFc fusion polypeptide (SEQ ID NO: 56) was examined in a rat model of left ventricular diastolic dysfunction (also referred to as HEpEF) group 2 (subgroup 2.2) pulmonary hypertension (PH). In this model, ZSF1-Lepr^faLepr^cp/Crl rats were challenged with semaxanib to induce HFpEF-PH(l).
Forty ZSF1 Lepr^faLepr^cp/Crl male […] (8 wks old) and five lean rats were subcutaneously administered with a single dose of semaxanib (100 mg/kg) at day 0, and five lean rats were included as normal control. Six weeks after semaxanib (SU5416) treatment, Thirty-six ZSF1 Lepr^faLepr^cp/Crl rats were randomized into four groups: i) nine rats were injected subcutaneously with vehicle control (phosphate buffered saline (PBS)), twice weekly for 8 weeks starting from day 42 after semaxanib treatment, “ZSF1-SU/PBS”; a ii) ten rats were injected subcutaneously with ActRIIA-mFc at a dose of 1 mg/kg twice weekly for 8 weeks starting from day 42 after semaxanib treatment, “ZSF1-SU/ActRIIA-mFc 1 mpk”: a iii) nine rats were injected subcutaneously with ActRIIA-mFc at a dose of 3 mg/kg twice weekly for 8 weeks starting from day 42 after semaxanib treatment, “ZSF1-SU/ActRIIA-mFc 3 mpk”; and a iv) eight rats were injected subcutaneously with ActRIIA-mFc at a dose of 10 mg/kg twice weekly for 8 weeks starting from day 42 after semaxanib treatment, “ZSF1-SU/ActRIIA-mFc 10 mpk”. At the end of the study, echocardiography and pressure-volume catheter were performed to measure left and right ventricular remodeling and functional changes before animals were euthanized for heart and lung collection. Hearts and lungs of each rat were weighed, fixed in 10% formalin, embedded in paraffin, and sectioned for Masson's trichrome stain to assess fibrosis. Serum and urine samples were collected at the end of the study.
Rats were fasted overnight to measure fasting blood glucose levels at week 14 (before treatments started), week 18 (4 weeks after treatments), and week 22, and oral glucose tolerance test was performed at week 22. Blood glucose levels were measured with a glucometer after bleeding tail vein with a 27G needle. To prepare oral glucose tolerance test, 40% glucose stock solution run through a filter to sterilize it. After fasting overnight, rat body weight was measured. Blood glucose level was detected. Then 40% glucose solution was administered via oral gavage according to body weight (2 g/kg). Blood glucose levels were measured at 30, 60, 90, 120 minutes.
Prior to euthanization, in vivo cardiac function was assessed by transthoracic echocardiography (Acuson P300, 18 MHz linear transducer; Siemens) in lightly anesthetized rats as described (2). From left ventricle short axis view, M-mode echocardiogram was acquired to measure interventricular septal thickness at end diastole (IVSd), left ventricular posterior wall thickness at end diastole (LVPWd), left ventricular end diastolic diameter (LVEDD), and left ventricular end systolic diameter (LVESD). Left ventricular mass (LVM) was assessed by the equation: 1.05 [(LVEDD+LVPTD+IVSd)^3-LVEDD^3]. Early diastolic filling peak velocity (E), early diastolic mitral annular velocity (E′), and isovolumetric relaxation time (IVRT) were measured from the medial or septal wall at the mitral valve level from tissue Doppler image. LV diastolic function was assessed by measuring the E/E′ ratio and IVRT. Pulmonary arterial acceleration time (PAAT), a parameter of right ventricular function, was also measured.
Fourteen weeks after semaxanib treatment, rats were anesthetized with ketamine (100 mg/kg) and xylazine (5 mg/kg) at the end of the experiment to evaluate cardiac and pulmonary hemodynamics. The respiration was supported by a small animal ventilator. Thoracotomy was made through 4-5 intercostal space, and the heart was exposed. A pressure-volume catheter (2.0-Fr, SPR-869, Millar Instruments, Houston, TX, USA) was be inserted into the left ventricle and right ventricle from the apex. […]

[1] = 1 mpk, 3 mpk and 10 mpk, FIGS. 41-43

In the case of “ActRIIA-mFc: ActRIIA-mFc fusion polypeptide (SEQ ID NO: 56); extracellular domain fused to murine IgG2a Fc domain with a linker”, the fasting blood glucose [1] is reported as “significantly reduced fasting blood glucose”, the “glucose level in urine” value [1] is reported as “decreased glucose level in urine” and the “glucose tolerance (oral glucose tolerance test)” value [1] is reported as “improved glucose tolerance”. The “E/E′ ratio” value (3 mpk and 10 mpk s.c. twice weekly for 8 weeks from day 42 after semaxanib, FIG. 29) was “reduced E/E′ ratio”, the IVRT (3 mpk and 10 mpk s.c. twice weekly for 8 weeks from day 42 after semaxanib, FIG. 30) was “decreased IVRT” and the RVFWT (3 mpk and 10 mpk s.c. twice weekly for 8 weeks from day 42 after semaxanib, FIG. 34) was “significantly reduced elevated RVFWT”. The PAAT (3 mpk and 10 mpk s.c. twice weekly for 8 weeks from day 42 after semaxanib, FIG. 35) was “reduced PAAT”, the RVSP (3 mpk and 10 mpk s.c. twice weekly for 8 weeks from day 42 after semaxanib, FIG. 36) was “reduced elevated RVSP” and the “left heart remodeling (HW/TL, IVSd, LVM)” value (3 mpk and 10 mpk s.c. twice weekly for 8 weeks from day 42 after semaxanib, FIGS. 31-33) was “significantly reduced left heart remodeling”. For the same substance, the “fibrosis in LV” value (s.c. twice weekly for 8 weeks, dose not given, FIG. 37) was “significantly reduced the increased fibrosis”, the “fibrosis in RV” value (s.c. twice weekly for 8 weeks, dose not given, FIG. 38) was “significantly reduced the increased fibrosis” and the fibrosis in lung (s.c. twice weekly for 8 weeks, dose not given, FIG. 39) was “significantly reduced the increased fibrosis”.
